These results are taken from patent US20260226006A1, “INDOLE COMPOUND, PREPARATION METHOD THEREFOR AND USE THEREOF” (SUZHOU MERNA THERAPEUTICS CO. LTD, priority 2023, published 2026).

Data set [1] deals with HaCat cells. The data set can be described thus: m6A methylation level of human HaCat keratinocytes, EpiQuik m6A RNA methylation quantification kit (Example 20). The format is cell-based. The note with it: for abnormal increase in the RNA m6A level of human keratinocytes caused by chemotherapeutic drugs and multikinase inhibitors: 400 nM compound after 50 nM drug; for m6A fold change relative to control group 1 / fold induction at 0.05 µM: HaCat cells, 24 hours; for m6A methylation level of human HaCat keratinocytes / fold induction at 0.05 µM: 50 nM drug alone; for fold induction at 0.05 µM: Homo sapiens, read-out: m6A fold change relative to control group 1. In short, it runs like this:
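HaCat keratinocytes in DMEM/10% FBS given 50 nM sorafenib, capecitabine, docetaxel or osimertinib, then 400 nM test compound or nicotinamide, and cultured 24 hours at 37° C. Total RNA m6A quantified by EpiQuik ELISA at 450 nm against a standard curve, expressed as percentage of RNA input.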

Data set [2] concerns paw plantar skin of rats. The data set can be described thus: Rat models with hand-foot skin reaction, topical ointment (Example 22). The note with it: for Incidence rate / Incidence rate (successful modeling rate for hand-foot skin reaction): 30 days; for incidence rate of hand-foot skin reaction at a drug application site: compounds at a mass content of 1% in ointment; for incidence rate of hand-foot skin reaction in all paws of the rats: compounds at mass contents of 3% and 10% in ointment; for differentiation of keratinocytes both in vitro and in vivo: summary of Examples 21 and 22; for Incidence rate (successful modeling rate for hand-foot skin reaction): modeling drug alone by gavage once daily, no ointment, SD rats. The format is in vivo, SD rats. How it is done:
After adaptive feeding for one week, SD rats (with a body weight of approximately 200 g) were randomly divided into groups according to the body weight, with 12 rats in each group. Modeling drugs (including sorafenib, erlotinib, afatinib, and osimertinib) were respectively dissolved in a solution containing 5% of DMSO, 45% of PEG400, and 50% of H2O, and the modeling drugs were diluted to required concentrations and then administered once daily by gavage at doses shown in Table 3. After administration by gavage for 1 hour, 0.05 g of ointments containing different mass proportions of test compounds were evenly applied to left paws of the rats, a blank matrix ointment was applied to right paws of the rats to serve as a self-control, and no ointment was applied to the rats in a blank control group. After drug application, four limbs were continuously immobilized for 2 hours, then wiped with clean water to remove the residual drugs, removed from immobilization, and restored to free movement. The modeling drugs, the blank matrix ointment, and the ointments containing the test compounds were all administered once daily. After continuous administration for 30 days, the rats were euthanized, and paw plantar skin tissues were collected, fixed in 10% neutral formalin, […]. The ointments for the test compounds were prepared by mixing the compounds, white beeswax, white petrolatum, and light liquid paraffin in specific ratios (weight ratios of 3 ointments were respectively 1:18:58:23, 3:18:57:22, and 10:20:40:30). The blank matrix ointment was prepared by mixing white beeswax, white petrolatum, and light liquid paraffin in a specific ratio (weight ratio of 18:60:22).
Tissue staining: After dewaxing and rehydration, the paw plantar skin tissue sections of the above rats were stained in a hematoxylin solution for several minutes, cleaned, and placed in 1% acid alcohol for soaking until the sections faded to light blue-red. After cleaning with running water for 5 minutes, the sections were stained with eosin for 2-3 minutes, cleaned to remove excess dyes, dehydrated, then permeabilized by adding xylene for several minutes, and sealed and fixed with a neutral resin. The stratum corneum was observed under an optical microscope, and the thickness of the epidermal stratum corneum was measured using Dmetrix software.
Immunohistochemical staining: After dewaxing and hydration, the paw plantar skin tissue sections of the above rats were incubated with 3% H2O2 at room temperature for 30 minutes and blocked with 10% goat serum for 30 minutes after antigen retrieval. A KRT1 antibody (Abcam, ab93652) and a Loricrin antibody (Abcam, ab183646) were added dropwise, the sections were incubated overnight at 4° C., and an HRP secondary antibody (ZSGB-BIO, PV-6001) and a DAB kit (ZSG-BIO, ZLI9017) were added for color development. The sections were re-stained with hematoxylin, cleaned, and sealed and fixed with a neutral resin, and the expression amounts of KRT1 and Loricrin were observed under an optical microscope.
An incidence rate calculation method involves a proportion of animals in each group meeting the above criteria for determining successful modeling, that is, incidence rate=(number of successfully modeled rats/total number of rats in the group)*100%. […]

Setting [3] is: 50 nM capecitabine + 400 nM test compound.
The mark [4] stands for this setting: 50 nM docetaxel + 400 nM test compound.
Where [5] appears, read: 50 nM osimertinib + 400 nM test compound.
[6] abbreviates: 50 nM sorafenib + 400 nM test compound.
Setting [7] is: afatinib 50 mg/kg, 1% compound ointment on left paw, left paw.
The mark [8] stands for this setting: afatinib 50 mg/kg, 1% compound ointment on left paw, right paw (blank matrix ointment).
[9] abbreviates: afatinib 50 mg/kg, 3% compound ointment on left paw, left paw.
Where [10] appears, read: afatinib 50 mg/kg, 3% compound ointment on left paw, right paw (blank matrix ointment).
Where [11] appears, read: afatinib 50 mg/kg, 10% compound ointment on left paw, left paw.
Setting [12] is: afatinib 50 mg/kg, 10% compound ointment on left paw, right paw (blank matrix ointment).
The mark [13] stands for this setting: erlotinib 70 mg/kg, 1% compound ointment on left paw, left paw.
Where [14] appears, read: erlotinib 70 mg/kg, 1% compound ointment on left paw, right paw (blank matrix ointment).
[15] abbreviates: erlotinib 70 mg/kg, 3% compound ointment on left paw, left paw.
Setting [16] is: erlotinib 70 mg/kg, 3% compound ointment on left paw, right paw (blank matrix ointment).
[17] abbreviates: erlotinib 70 mg/kg, 10% compound ointment on left paw, left paw.
Setting [18] is: erlotinib 70 mg/kg, 10% compound ointment on left paw, right paw (blank matrix ointment).
Where [19] appears, read: osimertinib 60 mg/kg, 1% compound ointment on left paw, left paw.
Where [20] appears, read: osimertinib 60 mg/kg, 1% compound ointment on left paw, right paw (blank matrix ointment).
[21] abbreviates: osimertinib 60 mg/kg, 3% compound ointment on left paw, left paw.
Where [22] appears, read: osimertinib 60 mg/kg, 3% compound ointment on left paw, right paw (blank matrix ointment).
The mark [23] stands for this setting: osimertinib 60 mg/kg, 10% compound ointment on left paw, left paw.
[24] abbreviates: osimertinib 60 mg/kg, 10% compound ointment on left paw, right paw (blank matrix ointment).
[25] abbreviates: paw plantar skin of modeled rats, topical ointment.
Where [26] appears, read: sorafenib 100 mg/kg, 1% compound ointment on left paw, left paw.
Where [27] appears, read: sorafenib 100 mg/kg, 1% compound ointment on left paw, right paw (blank matrix ointment).
The mark [28] stands for this setting: sorafenib 100 mg/kg, 3% compound ointment on left paw, left paw.
Where [29] appears, read: sorafenib 100 mg/kg, 3% compound ointment on left paw, right paw (blank matrix ointment).
Where [30] appears, read: sorafenib 100 mg/kg, 10% compound ointment on left paw, left paw.
Setting [31] is: sorafenib 100 mg/kg, 10% compound ointment on left paw, right paw (blank matrix ointment).
Where [32] appears, read: successfully modeled rats, modeling drug.

On to `NC(=O)C1c2[nH]c3ccc(Cl)cc3c2C2CCC1C2` [Compound 5a, (S)-2-chloro-5,6,7,8,9,10-hexahydro-7,10-methanocyclohepta[b]indole-6-carboxamide], for which the “abnormal increase in the RNA m6A level of human keratinocytes caused by chemotherapeutic drugs and multikinase inhibitors” value in data set [1] was “effectively inhibit”. Further, the “m6A fold change relative to control group 1” value in data set [1] (setting [3]) is on record as 1.2; in data set [1] (setting [4]) it was 1.0; in data set [1] (setting [5]), 1.2; in data set [1] (setting [6]), 1.0. Moreover, the Incidence rate in data set [2] (setting [7]) is listed as 1/12 (8%); in data set [2] (setting [8]), 9/12 (75%); in data set [2] (setting [9]), 1/12 (8%); in data set [2] (setting [10]), 4/12 (33%); in data set [2] (setting [11]), 0/12 (0%); in data set [2] (setting [12]) it was 1/12 (8%). Further, the Incidence rate in data set [2] (setting [13]) is 2/12 (17%); in data set [2] (setting [14]), 9/12 (75%); in data set [2] (setting [15]), 2/12 (17%); in data set [2] (setting [16]), 5/12 (42%); in data set [2] (setting [17]) it was 0/12 (0%); in data set [2] (setting [18]) it was 0/12 (0%). Also, the Incidence rate in data set [2] (setting [19]) is 2/12 (17%); in data set [2] (setting [20]) it was 9/12 (75%); in data set [2] (setting [21]), 1/12 (8%); in data set [2] (setting [22]), 4/12 (33%); in data set [2] (setting [23]), 0/12 (0%); in data set [2] (setting [24]) it was 1/12 (8%). Also, the Incidence rate in data set [2] (setting [26]) is 1/12 (8%); in data set [2] (setting [27]), 10/12 (83%); in data set [2] (setting [28]), 1/12 (8%); in data set [2] (setting [29]), 5/12 (42%); in data set [2] (setting [30]), 0/12 (0%); in data set [2] (setting [31]), 2/12 (17%. In addition, the “incidence rate of hand-foot skin reaction at a drug application site” value in data set [2] is recorded as “significantly decrease”. In data set [2], the “incidence rate of hand-foot skin reaction in all paws of the rats” value is reported as “significantly decrease”. Further, in data set [2] (setting [25]), the “formation of blisters, inflammatory cell infiltration in the dermis and skin congestion (pathological scoring)” value is reported as “effectively improve”. The “formation of blisters, inflammatory cell infiltration in the dermis and skin congestion (tissue staining)” value in data set [2] (setting [25]) is “effectively improve”. In data set [2], the “differentiation of keratinocytes both in vitro and in vivo” value is “effectively inhibit”. Further, the “stratum corneum thickness of the paw plantar skin of the modeled rats” value in data set [2] (topical ointment) is given as “effectively decrease”.

For `CN1CC[C@H](C(N)=O)c2[nH]c3ccc(Cl)cc3c21` [Compound 8b, (S)-8-chloro-1-methyl-2,3,4,5-tetrahydropyrido[3,2-b]indole-4-carboxamide], in data set [1], the “abnormal increase in the RNA m6A level of human keratinocytes caused by chemotherapeutic drugs and multikinase inhibitors” value is “effectively inhibit”. Also, the “m6A fold change relative to control group 1” value in data set [1] (setting [3]) came to 1.0; in data set [1] (setting [4]), 1.2; in data set [1] (setting [5]), 1.0; in data set [1] (setting [6]), 1.0. Further, the Incidence rate is 1/12 (8%) in data set [2] (setting [7]); 9/12 (75%) in data set [2] (setting [8]); 1/12 (8%) in data set [2] (setting [9]); 4/12 (33%) in data set [2] (setting [10]); 0/12 (0%) in data set [2] (setting [11]); 1/12 (8%) in data set [2] (setting [12]). Also, the Incidence rate in data set [2] (setting [13]) is 2/12 (17%); in data set [2] (setting [14]), 10/12 (83%); in data set [2] (setting [15]), 1/12 (8%); in data set [2] (setting [16]), 4/12 (33%); in data set [2] (setting [17]) it was 0/12 (0%); in data set [2] (setting [18]), 0/12 (0%). Further, the Incidence rate in data set [2] (setting [19]) is 1/12 (8%); in data set [2] (setting [20]), 9/12 (75%); in data set [2] (setting [21]), 1/12 (8%); in data set [2] (setting [22]), 3/12 (25%); in data set [2] (setting [23]), 0/12 (0%); in data set [2] (setting [24]), 0/12 (0%). For the same compound, the Incidence rate in data set [2] (setting [26]) is 1/12 (8%); in data set [2] (setting [27]), 8/12 (67%); in data set [2] (setting [28]), 1/12 (8%); in data set [2] (setting [29]), 3/12 (25%); in data set [2] (setting [30]), 0/12 (0%); in data set [2] (setting [31]), 1/12 (8%). Besides, the “incidence rate of hand-foot skin reaction at a drug application site” value in data set [2] is recorded as “significantly decrease”. Further, the “incidence rate of hand-foot skin reaction in all paws of the rats” value in data set [2] is recorded as “significantly decrease”. In addition, in data set [2] (setting [25]), the “formation of blisters, inflammatory cell infiltration in the dermis and skin congestion (pathological scoring)” value is recorded as “effectively improve”. Moreover, the “differentiation of keratinocytes both in vitro and in vivo” value in data set [2] is “effectively inhibit”. In addition, the “stratum corneum thickness of the paw plantar skin of the modeled rats” value in data set [2] (topical ointment) was “effectively decrease”.

With `C=CC(=O)Nc1cc(Nc2nccc(-c3cn(C)c4ccccc34)n2)c(OC)cc1N(C)CCN(C)C` [Osimertinib, osimertinib, reference compound], in data set [1], the “m6A methylation level of human HaCat keratinocytes” value was “significantly increase” and the fold induction at 0.05 µM was 4.8. Moreover, in data set [2] (rat, in vivo), the “KRT1 and Loricrin in tissues (immunohistochemical staining)” value is recorded as “significantly increased”; the “stratum corneum thickness of the paw plantar skin” value was “significantly higher than that of normal rats”.

With `CNC(=O)c1cc(Oc2ccc(NC(=O)Nc3ccc(Cl)c(C(F)(F)F)c3)cc2)ccn1` [Sorafenib, sorafenib, reference compound], in data set [1], the “m6A methylation level of human HaCat keratinocytes” value is listed as “significantly increase” and the fold induction at 0.05 µM came out at 4.5. For the same compound, in data set [2], the “Incidence rate (successful modeling rate for hand-foot skin reaction)” value was 9/12 (75%). The “Incidence rate (successful modeling rate for hand-foot skin reaction)” value in data set [2] (listed as sorafenib) was 75%. Also, in data set [2] (setting [32]), the “KRT1 and Loricrin in tissues (immunohistochemical staining)” value is listed as “significantly increased”; the “stratum corneum thickness of the paw plantar skin” value is given as “significantly higher than that of normal rats”.
